Source: patent publication US8895550B2, “Triazolopyridine compounds as PIM kinase inhibitors” (Array BioPharma Inc., priority 2008, dated 2014)

Assays:
Format in all cases: biochemical
[1] = biological target: T1, GST-tagged recombinant full-length human Pim-2 (Homo sapiens, UniProt Q9P1W9); test: PIM-2 Assay (as Example A with GST-tagged recombinant full-length human Pim-2); conditions: 4 μM ATP, 1.0 μM PIM2tide, 1.5 nM Pim-2; high dose 10 μM
T1 construct: GST-tagged recombinant full-length human Pim-2; GST
T1 sequence (Q9P1W9 whole entry): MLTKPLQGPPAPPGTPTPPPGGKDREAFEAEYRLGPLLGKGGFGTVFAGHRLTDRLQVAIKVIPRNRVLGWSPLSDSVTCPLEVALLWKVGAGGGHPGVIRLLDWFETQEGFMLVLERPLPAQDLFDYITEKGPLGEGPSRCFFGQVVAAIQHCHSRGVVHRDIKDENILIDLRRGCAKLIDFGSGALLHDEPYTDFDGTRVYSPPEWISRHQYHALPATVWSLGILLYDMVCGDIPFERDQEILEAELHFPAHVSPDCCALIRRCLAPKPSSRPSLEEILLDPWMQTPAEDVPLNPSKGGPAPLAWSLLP
Method: (§1) The assay for the determination of PIM-1 activity is based on the incorporation of [^33P]PO4 from [γ-^33P]ATP into PIM2tide substrate and capture of the radiolabeled peptide onto a Whatman P81 (phosphocellulose) filter plate. The amount of radiolabeled product is then measured by liquid scintillation counting. The final buffer conditions were as follows: 20 mM K^+MOPS, pH 7.4, 10 mM MgCl2, 0.005% Tween-20, 1 mM DTT. Assay mixtures contained 35 μM [γ-^33P]ATP (20 μCi/mL), 7.5 μM PIM2tide and 0.25 nM PIM-1 in a total volume of 50 μL. Incubations were carried out for 60 min at 22° C. and quenched with 75 μL, of 200 mM H3PO4, filtered through a Whatman P81 plate and washed (1×200 μL and 5×100 μL) with 200 mM H3PO4. Fifty μL of liquid scintillation cocktail were then added per well, and the plate was counted for 30 s/well using a TopCount NXT.
(§2) Compounds were prepared at 50× the final concentration in DMSO by conducting 3-fold serial dilutions from a 500-μM intermediate dilution to give a 10-point dosing curve having a high dose of 10 μM. One-μL aliquots of these were then transferred to the assay mixtures above to give a final concentration of DMSO of 2%. A standard or reference compound was typically included on each assay plate to validate that plate. For each plate, percent of control (POC) values were calculated for each well. IC50's were estimated from the POC's using a standard 4-parameter logistic model. The IC50 is defined as the concentration of inhibitor at which the POC equals 50 for the fitted curve.
Assay was performed as described in Example A, using 4 μM [γ-^33P]ATP (20 μCi/mL), 1.0 μM PIM2tide and 1.5 nM GST-tagged recombinant full-length human Pim-2 in place of PIM-1.

PIM-1 = PIM-1 (Homo sapiens, UniProt P11309); test: Enzyme PIM-1 Assay (radiometric [33P]ATP incorporation into PIM2tide, filter plate); conditions: 35 μM ATP, 7.5 μM PIM2tide, 0.25 nM PIM-1, 60 min at 22° C.; high dose 10 μM
PIM-1, sequence (P11309 whole entry, species assumed): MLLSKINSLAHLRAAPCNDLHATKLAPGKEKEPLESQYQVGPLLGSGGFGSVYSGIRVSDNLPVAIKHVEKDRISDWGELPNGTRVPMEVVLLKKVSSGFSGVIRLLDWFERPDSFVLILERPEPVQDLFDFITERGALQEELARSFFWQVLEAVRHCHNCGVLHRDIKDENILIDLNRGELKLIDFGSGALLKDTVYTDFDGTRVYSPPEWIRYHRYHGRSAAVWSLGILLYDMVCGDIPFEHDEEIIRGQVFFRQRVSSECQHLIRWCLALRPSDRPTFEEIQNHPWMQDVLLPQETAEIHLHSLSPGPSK
Method: as §1, §2

recombinant rat PIM-3 = recombinant rat PIM-3 (Rattus norvegicus, UniProt O70444); test: PIM-3 Assay (as Example A with recombinant rat PIM-3); conditions: 30 μM ATP, 3.75 μM PIM2tide, 0.5 nM PIM-3; high dose 10 μM
Method: as §1, §2
Assay was performed as described in Example A, using 30 μM [γ-^33P]ATP (20 μCi/mL), 3.75 μM PIM2tide and 0.5 nM recombinant rat PIM-3 in place of PIM-1.

SMILES	IC50 [1] [nM]	IC50 (PIM-1) [nM]	IC50 (recombinant rat PIM-3) [nM]
N[C@@H]1CCN(c2cccc3ccc(-c4nnc5ccccn45)nc23)C[C@@H]1F (relative stereo) [Example 27, (cis)-1-(2-([1,2,4]triazolo[4,3-a]pyridin-3-yl)quinolin-8-yl)-3-fluoropiperidin-4-amine]	570	34	38
COCCOc1ccn2c(-c3ccc4cccc(N5CCNCC5)c4n3)nnc2c1 [Example 1, 2-(7-(2-Methoxyethoxy)-[1,2,4]triazolo[4,3-a]pyridin-3-yl)-8-(piperazin-1-yl)quinoline]	≥ 10000	255	554
COc1ccn2c(-c3ccc4cccc(N5CCNCC5)c4n3)nnc2c1 [Example 2, 2-(7-Methoxy-[1,2,4]triazolo[4,3-a]pyridin-3-yl)-8-(piperazin-1-yl)quinoline]	≥ 10000	179	
COc1ccn2c(-c3ccc4cccc(N5CCC(N)CC5)c4n3)nnc2c1 [Example 3, 1-(2-(7-Methoxy-[1,2,4]triazolo[4,3-a]pyridin-3-yl)quinolin-8-yl)piperidin-4-amine]	2310	24	60
COc1ccn2c(-c3ccc4cccc(N5CCOCC5)c4n3)nnc2c1 [Example 4, 4-(2-(7-Methoxy-[1,2,4]triazolo[4,3-a]pyridin-3-yl)quinolin-8-yl)morpholine]	≥ 10000	2790	
c1cc(N2CCCCC2)c2nc(-c3nnc4ccccn34)ccc2c1 [Example 5, 2-([1,2,4]Triazolo[4,3-a]pyridin-3-yl)-8-(piperidin-1-yl)quinoline]	2600	24	121
c1cc(N2CCNCC2)c2nc(-c3nnc4ccccn34)ccc2c1 [Example 6, 2-([1,2,4]Triazolo[4,3-a]pyridin-3-yl)-8-(piperazin-1-yl)quinoline]	2980	31	105
C[C@@H]1CN(c2cccc3ccc(-c4nnc5ccccn45)nc23)CCN1 [Example 7, (R)-2-([1,2,4]Triazolo[4,3-a]pyridin-3-yl)-8-(3-methylpiperazin-1-yl)quinoline]	3590	17	105
C[C@@H]1CN(c2cccc3ccc(-c4nnc5ccccn45)nc23)C[C@H](C)N1 [Example 8, 2-([1,2,4]Triazolo[4,3-a]pyridin-3-yl)-8-((cis)-3,5-dimethylpiperazin-1-yl)quinoline]	≥ 10000	54	189
NC1CCN(c2cccc3ccc(-c4nnc5ccccn45)nc23)CC1 [Example 9, 1-(2-([1,2,4]Triazolo[4,3-a]pyridin-3-yl)quinolin-8-yl)piperidin-4-amine]	543	11	24
NCC1CCN(c2cccc3ccc(-c4nnc5ccccn45)nc23)CC1 [Example 10, (1-(2-([1,2,4]Triazolo[4,3-a]pyridin-3-yl)quinolin-8-yl)piperidin-4-yl)methanamine]	224	3	13
NCC1CCN(c2cccc3ccc(-c4nnc5cc(CO)ccn45)nc23)CC1 [Example 11, (3-(8-(4-(Aminomethyl)piperidin-1-yl)quinolin-2-yl)-[1,2,4]triazolo[4,3-a]pyridin-7-yl)methanol]	2600	84	217
CCNCc1ccn2c(-c3ccc4cccc(N5CCC(CN)CC5)c4n3)nnc2c1 [Example 12, N-((3-(8-(4-(aminomethyl)piperidin-1-yl)quinolin-2-yl)-[1,2,4]triazolo[4,3-a]pyridin-7-yl)methyl)ethanamine]	92	3	4
NCc1ccn2c(-c3ccc4cccc(N5CCC(CN)CC5)c4n3)nnc2c1 [Example 13, (1-(2-(7-(Aminomethyl)-[1,2,4]triazolo[4,3-a]pyridin-3-yl)quinolin-8-yl)piperidin-4-yl)methanamine]	29	2	4
NCC1CCN(c2cccc3ccc(-c4nnc5cc(C(O)CO)ccn45)nc23)CC1 (stereo not drawn) [Example 14, 1-(3-(8-(4-(Aminomethyl)piperidin-1-yl)quinolin-2-yl)-[1,2,4]triazolo[4,3-a]pyridin-7-yl)ethane-1,2-diol]	509	4	20
OCC1CCCN(c2cccc3ccc(-c4nnc5ccccn45)nc23)C1 (stereo not drawn) [Example 15, (1-(2-([1,2,4]Triazolo[4,3-a]pyridin-3-yl)quinolin-8-yl)piperidin-3-yl)methanol]	2080	15	
NCC1CCN(c2cc(F)cc3ccc(-c4nnc5ccccn45)nc23)CC1 [Example 16, (1-(2-([1,2,4]triazolo[4,3-a]pyridin-3-yl)-6-fluoroquinolin-8-yl)piperidin-4-yl)methanamine]	185	3	10
NCC1CCN(c2ccc(F)c3ccc(-c4nnc5ccccn45)nc23)CC1 [Example 17, (1-(2-([1,2,4]triazolo[4,3-a]pyridin-3-yl)-5-fluoroquinolin-8-yl)piperidin-4-yl)methanamine]	1960	77	51
NCC1CCN(c2cc(Cl)cc3ccc(-c4nnc5ccccn45)nc23)CC1 [Example 18, (1-(2-([1,2,4]Triazolo[4,3-a]pyridin-3-yl)-6-chloroquinolin-8-yl)piperidin-4-yl)methanamine]	736	32	25
CC1CCCN(c2cccc3ccc(-c4nnc5ccccn45)nc23)C1 (stereo not drawn) [Example 19, 2-([1,2,4]triazolo[4,3-a]pyridin-3-yl)-8-(3-methylpiperidin-1-yl)quinoline]	1800	18	
OC1CCCN(c2cccc3ccc(-c4nnc5ccccn45)nc23)C1 (stereo not drawn) [Example 20, 1-(2-([1,2,4]triazolo[4,3-a]pyridin-3-yl)quinolin-8-yl)piperidin-3-ol]	2380	48	
N[C@@H]1CCCN(c2cccc3ccc(-c4nnc5ccccn45)nc23)C1 [Example 21, (R)-1-(2-([1,2,4]triazolo[4,3-a]pyridin-3-yl)quinolin-8-yl)piperidin-3-amine]	142	7	
N[C@H]1CCCN(c2cccc3ccc(-c4nnc5ccccn45)nc23)C1 [Example 22, (S)-1-(2-([1,2,4]triazolo[4,3-a]pyridin-3-yl)quinolin-8-yl)piperidin-3-amine]	3100	270	
CC1(C)CN(c2cccc3ccc(-c4nnc5ccccn45)nc23)CCN1 [Example 23, 2-([1,2,4]triazolo[4,3-a]pyridin-3-yl)-8-(3,3-dimethylpiperazin-1-yl)quinoline]	647	22	62
Cc1nc(CN2CCN(c3cccc4ccc(-c5nnc6ccccn56)nc34)CC2)cs1 [Example 24, 4-((4-(2-([1,2,4]triazolo[4,3-a]pyridin-3-yl)quinolin-8-yl)piperazin-1-yl)methyl)-2-methylthiazole]	≥ 10000	150	
CC1CCCN(c2c(Br)ccc3ccc(-c4nnc5ccccn45)nc23)C1 (stereo not drawn) [Example 25, 2-([1,2,4]triazolo[4,3-a]pyridin-3-yl)-7-bromo-8-(3-methylpiperidin-1-yl)quinoline]	3020	128	
CC1(N)CCN(c2cccc3ccc(-c4nnc5ccccn45)nc23)CC1 [Example 26, 1-(2-([1,2,4]triazolopyridin-3-yl)quinolin-8-yl)-4-methylpiperidin-4-amine]	613	21	62
